Test results reported in patent US5760036A, “Aminediol protease inhibitors” (E. R. Squibb & Sons, Inc., priority 1995, dated 1998).
Where two headings read alike, the source gives them in different places.

Assays:
HIV protease = target: T1, HIV protease (Human immunodeficiency virus type 1 group M subtype B, UniProt P04585); test: HIV Protease Assay; format: biochemical; settings: 4% DMSO, 450 μM substrate, pH 5.5, 30 minutes at 37° C., RP-HPLC; for inhibition at 10 µM: pH 5.5, 10 μM inhibitor, read-out: HIV Protease % Inhibition at 10 μM
T1 construct: and purified protease
How it was run: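 At a single final concentration of 10 μM (4% DMSO), inhibitors were added to a 30-minute, 37° C reaction of purified enzyme with 450 μM H2N-Val-Ser-Gln-Asn-(β-naphthyl-alanine)-Pro-Val-Ile-OH at pH 5.5 (sodium acetate, BSA). Hydrolysis was quantified by reverse-phase HPLC with 220 nm detection after acid quench.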

[1] = test system: RF strain of HIV (CEM-SS cells); test: Cell Culture Anti-HIV Activity (cell viability, formazan); format: cell-based; settings: CEM-SS cells, RF strain of HIV, multiplicity of infection 0.04, 6 days at 37° C., 450 nm, read-out: HIV (CEM Cells) IC50
How it was run: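 Half-log compound dilutions added to CEM-SS cells (5000/well) carrying HIV RF (MOI 0.04), 6 days, 37° C. Cell protection measured as formazan from tetrazolium, A450. IC50: drug level restoring infected-cell formazan to 50% of the uninfected untreated control.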

[2] = Human immunodeficiency virus 1, CEM-SS, 144 h

SMILES | inhibition at 10 µM (HIV protease) [%] | HIV Protease % Inhibition at 10 μM (HIV protease; 10 μM inhibitor) [%] | IC50 [1, 2] [nM] | IC50 [1] [nM]
CC(C)[C@H](NC(=O)CNC(=O)OC(C)(C)C)C(=O)N[C@@H](Cc1ccccc1)[C@H](O)CNC[C@@H](O)[C@H](Cc1ccccc1)NC(=O)[C@@H](NC(=O)CNC(=O)OC(C)(C)C)C(C)C [Compound 99, [S-(1R*,2S*)]-N,N'-[Iminobis[2-hydroxy-1-(phenylmethyl)-3,1-propanediyl]]bis [N^2-[[[1,1-dimethylethoxy)carbonyl]-amino]acetyl]-L-valinamide]] | 99 | – | > 100000 | –
CC(C)[C@H](NC(=O)c1nc2ccccc2[nH]1)C(=O)N[C@@H](Cc1ccccc1)[C@H](O)CNC[C@@H](O)[C@H](Cc1ccccc1)NC(=O)OC(C)(C)C [Compound 101, [S-[1R*,2S*(2S*,3R*)]-N-[3-[[3-[[(1,1-Dimethylethoxy)carbonyl]amino]-2-hydroxy-4-phenylbutyl]amino]-2-hydroxy-1-(phenylmethyl)propyl]-N^2-[(1H-benzimidazol-2-yl)-carbonyl]-L-valinamide]] | 99 | – | 140 | –
CC(C)[C@H](NC(=O)[C@H](Cc1ccccc1)NC(=O)OCc1ccccc1)C(=O)N[C@@H](Cc1ccccc1)[C@H](O)CNC[C@@H](O)[C@H](Cc1ccccc1)NC(=O)OC(C)(C)C [Compound 62, [1S-[1R*,2S*(2S*,3R*)]-N-[3-[[3-[[(1,1-Dimethylethoxy)carbonyl]amino]-2-hydroxy-4-phenylbutyl]amino]-2-hydroxy-1-(phenyl-methyl)propyl]-N^2-[(phenylmethoxy)carbonyl]-L-phenylalanyl]-L-valinamide] | 98 | – | 50 | –
CC[C@H](C)[C@H](NC(=O)OCc1ccccc1)[C@H](O)CNC[C@@H](O)[C@H](Cc1ccccc1)NC(=O)OC(C)(C)C [Compound 16, [2S-[2R*,[S*(2S*,3R*)]]-[1-Hydroxy-3-[[(1,1-dimethylethoxy)carbonyl]-amino]-2-hydroxy-4-phenylbutyl]amino]ethyl-2-methylbutyl]carbamic acid, phenylmethyl ester] | 83 | – | ≥ 2300 | –
CC(C)[C@H](NC(=O)N(C)Cc1ccccn1)C(=O)N[C@@H](Cc1ccccc1)[C@H](O)CNC[C@@H](O)[C@H](Cc1ccccc1)NC(=O)[C@@H](NC(=O)N(C)Cc1ccccn1)C(C)C [Compound 75, [S-(1R*,2S*)]-N,N'-[Iminobisr[2-hydroxy-1-(phenylmethyl)-3,1-propanediyl]bisr[N^2-[[methyl(2-pyridinylmethyl)amino]carbonyl]-L-valinamide] | 100 | – | 5000 | –

Further lines, with some results ahead:

inhibition at 10 µM (HIV protease) [%] | HIV Protease % Inhibition at 10 μM (HIV protease; 10 μM inhibitor) [%] | SMILES | IC50 [1, 2] [nM] | IC50 [1] [nM]
100 | – | COC(=O)N(C)[C@H](C(=O)N[C@@H](Cc1ccccc1)[C@H](O)CNC[C@@H](O)[C@H](Cc1ccccc1)NC(=O)OC(C)(C)C)C(C)(C)C [Compound 320, [1S-[1R*,2S*,(2S*,3R*)]-[2,2-Dimethyl-1-[[[3-[[3-(1,1-dimethylethoxy)-carbonyl]amino]-2-hydroxy-4-phenylbutyl]amino]-2-hydroxy-1-(phenylmethyl)propyl]amino]-carbonyl]propyl]methylcarbamic acid, methyl ester] | 220 | –
100 | – | CC(C)(C)OC(=O)N[C@@H](Cc1ccccc1)[C@H](O)CNC[C@@H](O)[C@H](Cc1ccccc1)NC(=O)[C@@H](NC=O)C(C)(C)C [Compound 234, [1S-[1R*,2S*(2S*,3R*),(R*)]]-[3-[[3-[[3,3-Dimethyl-2-(formylamino)-1-oxobutyl]amino]-2-hydroxy-4-phenylbutyl]amino]-2-hydroxy-1-(phenylmethyl)propyl]carbamic acid, 1,1-dimethylethyl ester] | 80 | –
100 | – | CN(C)C(=O)N[C@H](C(=O)N[C@@H](Cc1ccccc1)[C@H](O)CNC[C@@H](O)[C@H](Cc1ccccc1)NC(=O)OC(C)(C)C)C(C)(C)C (relative stereo) [Compound 305, [1R*,2S* (2S*,3R*)]-N-[3-[[3-[[(1,1Dimethylethoxy)carbonyl]amino]-2-hydroxy-4-phenylbutyl]amino]-2-hydroxy-1-(phenylmethyl)propyl]-N^2-[(dimethylamino)carbonyl)-3-methyl-L-valinamide] | 200 | –
– | 100 | CC(C)(C)OC(=O)N[C@@H](Cc1ccccc1)[C@H](O)CNC[C@@H](O)[C@H](Cc1ccccc1)NC(=O)C(NC(=O)OCc1ccccc1)C(C)(C)CO (single isomer, unassigned; isomer b) [Compound 309, [1S-[1R*,2S*(2S*, 3R*)]]-[1-[[[3-[[(1,1-Dimethylethoxy)carbonyl]amino]-2-hydroxy-4-phenylbutyl]amino]-2-hydroxy-1-(phenylmethyl)-propyl]amino]carbonyl]-2-(hydroxymethyl)-2-methylpropyl]carbamic acid, phenylmethyl ester. isomer B] | – | 1800
99 | – | CC(C)(C)OC(=O)N[C@@H](Cc1ccccc1)[C@H](O)CNC[C@@H](O)[C@H](Cc1ccc(OCc2nc3ccccc3o2)cc1)NC(=O)OC(C)(C)C [Compound 242, [1S-[1R*,2S*(2S*,3R*)]]-[3-[[4-[4-[(2-Benzoxazolyl)methoxy]phenyl]-3-[[(1,1-dimethylethoxy)carbonyl]amino]-2-hydroxybutyl]amino]-2-hydroxy-1-(phenylmethyl)propyl]carbamic acid, 1,1-dimethylethyl ester] | 110 | –
92 | – | CC(C)(C)OC(=O)N[C@@H](Cc1ccccc1)[C@H](O)CNC[C@@H](O)[C@H](Cc1ccccc1)NC(=O)C1(O)CCOC1 (stereo partly drawn) [Compound 330, [1S-[1R*,2S*(2S*,3R*)]]-[2-hydroxy-3-[[2-hydroxy-3-[[(tetrahydro-3-hydroxy-3-furanyl)carbonyl]amino]-4-phenylbutyl]amino]-1-(phenylmethyl)propyl]carbamic acid, 1,1-dimethylethyl ester] | 850 | –
100 | – | CC(C)(C)OC(=O)N[C@@H](Cc1ccccc1)[C@H](O)CNC[C@@H](O)[C@H](Cc1ccc(O)cc1)NC(=O)OC(C)(C)CO [Compound 233, [1S-[1R*,2S*(2S*,3R*)]]-[3-[[3-[[(1,1-Dimethylethoxy)carbonyl]amino]-2-hydroxy-4-(4-hydroxyphenyl)butyl]amino]-2-hydroxy-1-(phenylmethyl)propyl]carbamic acid,2-hydroxy-1,1-dimethylethyl ester] | 1000 | –
